Assay results published in ChEMBL document CHEMBL5303304, “EUbOPEN Chemogenomics Library - IncuCyte” (2023).

Key:
Assay type in all cases: toxicity, cell-based
[1] = system: HEK-293T; experiment: Incucyte cell viability with HEK293T; settings: human, 10 µM, compound concentration 10 uM
[2] = system: Fibroblast; experiment: Incucyte cell viability with human fibroblast; settings: 10 µM, compound concentration 10 uM
[3] = system: U2OS; experiment: Incucyte cell viability with U2OS; settings: human, 10 µM, compound concentration 10 uM
Also: unitless GR value; below 1 slowed growth and below 0 cell loss.

| SMILES | Growth Rate ([1]; 0 h, replicate number 1) | Growth Rate ([1]; 0 h, replicate number 2) | Growth Rate ([1]; 6 h, replicate number 1) | Growth Rate ([1]; 6 h, replicate number 2) | Growth Rate ([2]; 0 h, replicate number 1) | Growth Rate ([2]; 6 h, replicate number 1) | Growth Rate ([2]; 6 h, replicate number 2) | Growth Rate ([2]; 12 h, replicate number 2) | Growth Rate ([2]; 18 h, replicate number 1) | Growth Rate ([2]; 24 h, replicate number 1) | Growth Rate ([3]; 0 h, replicate number 2) | Growth Rate ([3]; 6 h, replicate number 1) | Growth Rate ([3]; 6 h, replicate number 2) | Growth Rate ([3]; 12 h, replicate number 2) | Growth Rate ([3]; 18 h, replicate number 2) | Growth Rate ([3]; 24 h, replicate number 2) | Growth Rate ([3]; 12 h, replicate number 1) | Growth Rate ([3]; 18 h, replicate number 1) | Growth Rate ([2]; 12 h, replicate number 1) | Growth Rate ([3]; 24 h, replicate number 1) | other results |
| --- | --- | --- | --- | --- | --- | --- | --- | --- | --- | --- | --- | --- | --- | --- | --- | --- | --- | --- | --- | --- | --- |
| O=C(NS(=O)(=O)N1CCC1)c1cc(C2CC2)c(OCC23CC4CC(CC(C4)C2)C3)cc1F | 0.85 | 0.39 | 0.69 | 0.7 | 0.19 | 0.24 | -1 | -0.01 | 0.03 | 0.81 | -0.98 | 0.59 | 0.7 | 0.73 | 0.8 | 0.87 |  |  |  |  | Growth Rate ([1]; 12 h, replicate number 1): 0.88; Growth Rate ([1]; 18 h, replicate number 1): 0.87; Growth Rate ([1]; 18 h, replicate number 2): 0.99; Growth Rate ([1]; 24 h, replicate number 1): 0.8; Growth Rate ([1]; 24 h, replicate number 2): 0.92; Growth Rate ([2]; 18 h, replicate number 2): 0.31; Growth Rate ([2]; 24 h, replicate number 2): 0.37; Growth Rate ([3]; 0 h, replicate number 1): -0.5 |
| C[C@@H](Cn1c(=O)[nH]/c(=N\c2ccc(Oc3ccccn3)cc2)n(Cc2ccc(Cl)cc2)c1=O)C(=O)O |  |  | 0.2 | 0.62 |  | -0.1 | -1 | 0.04 |  |  | -0.83 |  | 0.93 |  |  |  | 0.97 | 0.99 |  |  | Growth Rate ([1]; 18 h, replicate number 1): 0.97; Growth Rate ([2]; 18 h, replicate number 2): 0.75; Growth Rate ([2]; 24 h, replicate number 2): 0.85 |
| COc1cc(N[C@@H]2CCCC[C@]2(O)C(F)(F)F)ccc1F [BAY-9897] | 0.51 | 0.5 |  | 0.88 |  |  |  |  |  |  |  | 0.53 |  |  | 0.96 | 0.77 | 0.68 | 0.78 | 0.82 | 0.88 | Growth Rate ([1]; 12 h, replicate number 2): 0.88; Growth Rate ([3]; 0 h, replicate number 1): -0.16 |
| CC[C@H](CO)Nc1nc(Nc2cccc(-c3ccccn3)c2)c2ncn(C(C)C)c2n1.Cl.O |  |  | -0.37 | -0.77 | -0.64 | 0.1 | 0.21 | 0.28 | 0.33 | 0.45 |  |  |  |  |  |  | 0.96 | 0.92 | 0.05 | 0.76 | Growth Rate ([1]; 12 h, replicate number 1): -0.07; Growth Rate ([1]; 12 h, replicate number 2): -0.31; Growth Rate ([1]; 18 h, replicate number 1): 0.07; Growth Rate ([1]; 18 h, replicate number 2): -0.09; Growth Rate ([1]; 24 h, replicate number 1): 0.16; Growth Rate ([1]; 24 h, replicate number 2): 0; Growth Rate ([2]; 18 h, replicate number 2): 0.45; Growth Rate ([2]; 24 h, replicate number 2): 0.49; Growth Rate ([3]; 0 h, replicate number 1): -0.98 |
| Cl.O=C(O)CCCN1CCC[C@H]1COc1ccc(Oc2ccc(Cl)cc2)cc1 |  |  | 0.64 | -0.09 | -1 | 0.91 |  | 0.93 | 0.87 |  |  | 0.84 |  |  |  |  |  |  |  | 0.94 | Growth Rate ([1]; 12 h, replicate number 1): 0.9; Growth Rate ([1]; 12 h, replicate number 2): 0.12; Growth Rate ([1]; 18 h, replicate number 2): 0.37; Growth Rate ([1]; 24 h, replicate number 1): 0.98; Growth Rate ([1]; 24 h, replicate number 2): 0.53 |
| Nc1ncnc2c1ccn2[C@@H]1O[C@H]([C@@H](O)c2ccccc2)[C@@H](O)[C@H]1O |  | -0.97 | 0.8 |  |  | 0.32 | 0.31 | 0.57 | 0.97 | 0.81 |  |  |  | 1 | 0.91 | 0.95 |  | 0.86 | 0.69 | 0.8 |  |
| Cc1nc2cccnc2n2c(-c3cc(C(C)(C)O)ncc3Cl)nnc12 | 0.72 | -0.52 |  |  | -1 | 0.43 |  |  | 0.63 |  | 0.27 |  | 0.32 | 0.74 | 0.95 |  |  |  |  |  | Growth Rate ([2]; 0 h, replicate number 2): -0.22 |
| CC(=O)Nc1cccc(-n2c(=O)n(C3CC3)c(=O)c3c(Nc4ccc(I)cc4F)n(C)c(=O)c(C)c32)c1 [TRAMETINIB] | 0.04 | -0.7 |  | 0.92 |  | 0.65 |  |  |  |  | 0.61 | 0.99 | 0.66 | 0.91 | 0.85 | 0.74 | 0.58 | 0.53 |  | 0.9 | Growth Rate ([1]; 12 h, replicate number 2): 0.78; Growth Rate ([3]; 0 h, replicate number 1): 0.34 |
| Cn1c(=O)n(CCCO)c(=O)c2c1nc(Oc1cccc(OC(F)(F)F)c1)n2Cc1ccc(Cl)cc1 [ZERENCOTREP] | 0.5 | 0.33 | 0.54 | 0.64 |  | -0.36 | -0.98 | 0.88 |  |  | -0.21 |  |  |  |  |  | 0.8 | 0.88 | -1 | 0.94 | Growth Rate ([1]; 12 h, replicate number 1): 0.92; Growth Rate ([1]; 18 h, replicate number 1): 0.98; Growth Rate ([2]; 18 h, replicate number 2): 0.6; Growth Rate ([2]; 24 h, replicate number 2): 0.54 |
| Nc1nccc(-c2c(-c3ccc(F)cc3)ncn2C2CCN(Cc3ccon3)CC2)n1 | 0.09 |  |  | 0.91 |  |  |  |  |  |  |  | 0.99 | 0.8 | 0.75 | 0.72 | 0.66 |  |  |  |  | Growth Rate ([2]; 0 h, replicate number 2): -0.11 |
| CO[C@H](C)CN1CC[C@@]2(C)c3ccc(O)cc3C[C@@H]1C2(C)C.Cl | 0.75 | 0.63 |  |  |  | 0.46 | 0.74 |  | 0.79 | 0.96 | 0.71 | 0.63 | 0.94 | 0.77 |  | 0.82 | 0.93 | 0.87 | 0.6 | 0.87 | Growth Rate ([2]; 0 h, replicate number 2): 0.54 |
| CO[C@H](C)CN1CC[C@]2(C)c3cccc(O)c3C[C@H]1C2(C)C.Cl |  | -0.19 |  |  | -1 |  |  |  |  | 0.9 | -0.73 | 0.44 | 0.57 | 0.71 | 0.84 | 0.92 | 0.7 | 0.92 |  | 0.84 | Growth Rate ([2]; 0 h, replicate number 2): -0.48 |
| CN(C)Cc1cccc(NC(=C2C(=O)Nc3cc(C(N)=O)ccc32)c2ccccc2)c1 | 0.9 | -0.24 |  |  | -0.09 |  | 0.24 | 0.87 | -0.83 | 0.13 | -0.78 |  |  |  |  |  |  |  | -0.97 |  |  |
| O=C(Nc1ccc(Cl)c(-c2ccccn2)c1)c1cccc(COc2ccc(Br)cc2CNCCO)c1.O=CO |  |  | -0.57 | -0.56 | -0.98 |  | 0.09 | -0.14 | 0.29 | 0.25 |  | 0.38 | 0.78 | 0.6 | 0.36 | 0.33 | 0.61 | 0.3 | 0.51 | 0.53 | Growth Rate ([1]; 12 h, replicate number 1): -0.44; Growth Rate ([1]; 12 h, replicate number 2): -0.32; Growth Rate ([1]; 18 h, replicate number 1): -0.3; Growth Rate ([1]; 18 h, replicate number 2): -0.2; Growth Rate ([1]; 24 h, replicate number 1): -0.2; Growth Rate ([1]; 24 h, replicate number 2): -0.07; Growth Rate ([2]; 0 h, replicate number 2): 0.59; Growth Rate ([2]; 18 h, replicate number 2): -0.28; Growth Rate ([2]; 24 h, replicate number 2): -0.36 |
| COc1cccc(-c2c(C)c(Cc3c(F)cccc3C(F)(F)F)c3n(c2=O)[C@@H]([C@@H](N)c2ccccc2)CS3)c1F |  | -0.28 |  |  | -1 | 0.51 | -0.66 | 0.73 | 0.92 | 0.83 | -0.8 | 0.48 | 0.4 | 0.75 | 0.91 | 0.93 | 0.52 | 0.62 |  | 0.37 | Growth Rate ([1]; 12 h, replicate number 2): 0.52; Growth Rate ([1]; 18 h, replicate number 1): 0.72; Growth Rate ([1]; 18 h, replicate number 2): 0.5; Growth Rate ([1]; 24 h, replicate number 1): 0.6; Growth Rate ([1]; 24 h, replicate number 2): 0.46; Growth Rate ([2]; 24 h, replicate number 2): 0.87; Growth Rate ([3]; 0 h, replicate number 1): 0.81 |
